Data reported in US9113629B2, “4-amino-6-(4-substituted-phenyl)-picolinates and 6-amino-2-(4-substituted-phenyl)-pyrimidine-4-carboxylates and their use as herbicides” (DOW AGROSCIENCES LLC, priority 2013, dated 2015).

What was measured:
[1] = test system: KCHSC: kochia (Kochia scoparia); assay: Post-emergent Test III, herbicidal activity in wheat and barley; format: in vivo; settings: Table 9, 21 d; for pest or weed control at 35 g/ha: 35 g ai/ha; for pest or weed control at 70 g/ha: 70 g ai/ha; for GR50 KCHSC: dose for 50 percent growth reduction; for GR50 KCHSC / GR80 KCHSC: probit analysis; for GR80 KCHSC: dose for 80 percent growth reduction
Procedure: (§1) Post-emergent Test III. Seeds of the desired test plant species were planted in Sun Gro MetroMix® 306 planting mixture, which typically has a pH of 6.0 to 6.8 and an organic matter content of about 30 percent, in plastic pots with a surface area of 103.2 square centimeters (cm^2). When required to ensure good germination and healthy plants, a fungicide treatment and/or other chemical or physical treatment was applied. The plants were grown for 7-36 days (d) in a greenhouse with an approximate 14 hour (h) photoperiod which was maintained at about 18° C. during the day and 17° C. during the night. Nutrients and water were added on a regular basis and supplemental lighting was provided with overhead metal halide 1000-Watt lamps as necessary. The plants were employed for testing when they reached the second or third true leaf stage.
(§2) A weighed amount, determined by the highest rate to be tested, of each test compound was placed in a 25 mL glass vial and was dissolved in 4 mL of a 97:3 v/v mixture of acetone and DMSO to obtain concentrated stock solutions. […] The concentrated stock solutions obtained were diluted with 20 mL of an aqueous mixture containing acetone, water, isopropyl alcohol, DMSO, Agri-Dex crop oil concentrate, and X-77 surfactant in a 48:39:10:1.5:1.5:0.02 v/v ratio to obtain spray solutions containing the highest application rates. Additional application rates were obtained by serial dilution of 12 mL of the high rate solution into a solution containing 2 mL of 97:3 v/v mixture of acetone and DMSO and 10 mL of an aqueous mixture containing acetone, water, isopropyl alcohol, DMSO, Agri-Dex crop oil concentrate, and X-77 surfactant in a 48:39:10:1.5:1.5:0.02 v/v ratio to obtain ½×, ¼×, ⅛× and 1/16× rates of the high rate. Compound requirements are based upon a 12 mL application volume at a rate of 187 liters per hectare (L/ha). Formulated compounds were applied to the plant material with an overhead Mandel track sprayer equipped with 8002E nozzles calibrated to deliver 187 L/ha over an application area of 0.503 square meters at a spray height of 18 inches (43 cm) above the average plant canopy height. Control plants were sprayed in the same manner with the solvent blank.
(§3) The treated plants and control plants were placed in a greenhouse as described above and watered by subirrigation to prevent wash-off of the test compounds. After 21 d, the condition of the test plants as compared with that of the untreated plants was determined visually and scored on a scale of 0 to 100 percent where 0 corresponds to no injury and 100 corresponds to complete kill.
(§4) By applying the well-accepted probit analysis as described by J. Berkson in Journal of the American Statistical Society, 48, 565 (1953) and by D. Finney in “Probit Analysis” Cambridge University Press (1952), herbicidal injury of a specific compound at various rates can be used to calculate GR20, GR50, GR80 and GR90 values, which are defined as growth reduction factors that correspond to the effective dose of herbicide required to provide plant growth reduction (GR) of 20 percent, 50 percent, 80 percent and 90 percent, respectively. Probit analysis was applied to data collected from multiple dose rates of individual compounds utilizing the procedures explained in the following examples. The analysis of those dose rates is captured in the following tables.

[2] = test system: LOLSS: ryegrass including, Italian ryegrass (Lolium multiflorum), rigid ryegrass (Lolium rigidum), annual ryegrass (Lolium multiflorum subsp. Gaudini); assay: as above; format: in vivo; settings: Table 9, probit analysis, 21 d; for GR50 LOLSS: dose for 50 percent growth reduction; for GR80 LOLSS: dose for 80 percent growth reduction
Procedure: as §1, §2, §3, §4

[3] = test system: TRZSS: wheat, including spring and winter (Triticum aestivum); assay: as above; format: in vivo; settings: Table 9, 21 d; for GR20 TRZSS: dose for 20 percent growth reduction, probit analysis; for pest or weed control at 35 g/ha: 35 g ai/ha; for pest or weed control at 70 g/ha: 70 g ai/ha
Procedure: as §1, §2, §3, §4

[4] = as above; format: in vivo, Lolium multiflorum, Lolium rigidum; settings: Lolium multiflorum, post-emergence, 504 h, Table 9, post-emergent, 21 d, read-out: Visual Growth Reduction (%) 21 Days After Application LOLSS; for pest or weed control at 35 g/ha: 35 g ai/ha; for pest or weed control at 70 g/ha: 70 g ai/ha
Procedure: as §1, §2, §3, §4

[5] = test system: HORSS: barley, including spring and winter (Hordeum vulgare); assay: as above; format: in vivo; settings: Table 9, 21 d; for pest or weed control at 35 g/ha: 35 g ai/ha; for pest or weed control at 70 g/ha: 70 g ai/ha; for GR20 HORSS: dose for 20 percent growth reduction, probit analysis
Procedure: as §1, §2, §3, §4

[6] = test system: APESV: bentgrass (Apera spica-venti); assay: as above; format: in vivo; settings: Table 9, 21 d; for pest or weed control at 35 g/ha: 35 g ai/ha; for pest or weed control at 70 g/ha: 70 g ai/ha; for GR50 APESV: dose for 50 percent growth reduction; for GR50 APESV / GR80 APESV: probit analysis; for GR80 APESV: dose for 80 percent growth reduction
Procedure: as §1, §2, §3, §4

[7] = test system: SETVI: green foxtail (Setaria viridis); assay: as above; format: in vivo; settings: Table 9, 21 d; for pest or weed control at 35 g/ha: 35 g ai/ha; for pest or weed control at 70 g/ha: 70 g ai/ha; for GR50 SETVI: dose for 50 percent growth reduction; for GR50 SETVI / GR80 SETVI: probit analysis; for GR80 SETVI: dose for 80 percent growth reduction
Procedure: as §1, §2, §3, §4

[8] = Bassia scoparia, post-emergence, 504 h, post-emergent, read-out: Visual Growth Reduction (%) 21 Days After Application KCHSC
[9] = Triticum aestivum, post-emergence, 504 h, post-emergent, read-out: Visual Growth Reduction (%) 21 Days After Application TRZSS
[10] = Hordeum vulgare, post-emergence, 504 h, post-emergent, read-out: Visual Growth Reduction (%) 21 Days After Application HORSS
[11] = Apera spica-venti, post-emergence, 504 h, post-emergent, read-out: Visual Growth Reduction (%) 21 Days After Application APESV
[12] = Setaria viridis, post-emergence, 504 h, post-emergent, read-out: Visual Growth Reduction (%) 21 Days After Application SETVI

SMILES | pest or weed control at 35 g/ha [1, 8] | pest or weed control at 70 g/ha [1, 8] | GR50 KCHSC [1] | GR80 KCHSC [1] | GR50 LOLSS [2] | GR80 LOLSS [2] | GR20 TRZSS [3] | pest or weed control at 35 g/ha [3, 9] | pest or weed control at 70 g/ha [3, 9] | pest or weed control at 35 g/ha [4] | pest or weed control at 70 g/ha [4] | pest or weed control at 35 g/ha [5, 10] | pest or weed control at 70 g/ha [5, 10] | GR20 HORSS [5] | pest or weed control at 35 g/ha [6, 11] | pest or weed control at 70 g/ha [6, 11] | GR50 APESV [6] | GR80 APESV [6] | pest or weed control at 35 g/ha [7, 12] | pest or weed control at 70 g/ha [7, 12] | also measured
COC(=O)c1nc(-c2ccc(Br)cc2)c(Cl)c(N)c1Cl [Compound 47] | 85 to 94% | 75 to 84% | 20 g ai/ha | 45 g ai/ha | 80 g ai/ha | >140 g ai/ha | 1 g ai/ha | 85 to 94% | 95 to 100% | 0 to 29% | 45 to 59% | 95 to 100% | 95 to 100% | 1 g ai/ha | 95 to 100% | 95 to 100% | 10 g ai/ha | 14 g ai/ha | 0 to 29% | 75 to 84% | pest or weed control at 140 g/ha ([1]; Bassia scoparia, post-emergence, 504 h, 140 g ai/ha, post-emergent, read-out: Visual Growth Reduction (%) 21 Days After Application KCHSC): 95 to 100%; pest or weed control at 140 g/ha ([3]; Triticum aestivum, post-emergence, 504 h, 140 g ai/ha, post-emergent, read-out: Visual Growth Reduction (%) 21 Days After Application TRZSS): 95 to 100%; pest or weed control at 140 g/ha ([4]; 140 g ai/ha): 60 to 74%; pest or weed control at 140 g/ha ([5]; Hordeum vulgare, post-emergence, 504 h, 140 g ai/ha, post-emergent, read-out: Visual Growth Reduction (%) 21 Days After Application HORSS): 95 to 100%; pest or weed control at 140 g/ha ([6]; Apera spica-venti, post-emergence, 504 h, 140 g ai/ha, post-emergent, read-out: Visual Growth Reduction (%) 21 Days After Application APESV): 95 to 100%; pest or weed control at 140 g/ha ([7]; Setaria viridis, post-emergence, 504 h, 140 g ai/ha, post-emergent, read-out: Visual Growth Reduction (%) 21 Days After Application SETVI): 85 to 94%; GR50 SETVI [7]: 51 g ai/ha; GR80 SETVI [7]: 104 g ai/ha
COC(=O)c1nc(-c2cc(F)c(Br)cc2F)c(F)c(N)c1Cl [Compound 51, methyl 4-amino-6-(4-bromo-2,5-difluorophenyl)-3-chloro-5-fluoropicolinate] | 85 to 94% | 95 to 100% | 4 g ai/ha | 14 g ai/ha | 3 g ai/ha | 61 g ai/ha | 1 g ai/ha | 85 to 94% | 95 to 100% | 75 to 84% | 75 to 84% | 85 to 94% | 95 to 100% | 1 g ai/ha | 85 to 94% | 95 to 100% | 3 g ai/ha | 11 g ai/ha | 75 to 84% | 85 to 94% | GR50 SETVI [7]: 24 g ai/ha; GR80 SETVI [7]: 49 g ai/ha
C#Cc1ccc(-c2nc(C(=O)O)c(C=C)c(N)c2F)cc1 [Compound 36] | 0 to 29% | 0 to 29% | >140 g ai/ha | >140 g ai/ha | >140 g ai/ha | >140 g ai/ha | 1 g ai/ha | 75 to 84% | 75 to 84% | 0 to 29% | 0 to 29% | 30 to 44% | 60 to 74% | 16 g ai/ha | 0 to 29% | 0 to 29% | >140 g ai/ha | >140 g ai/ha | 0 to 29% | 30 to 44% | GR50 SETVI [7]: 126 g ai/ha; GR80 SETVI [7]: >140 g ai/ha
COC(=O)c1nc(-c2cc(F)c(I)cc2F)c(F)c(N)c1Cl [Compound 55, methyl 4-amino-3-chloro-6-(2,5-difluoro-4-iodophenyl)-5-fluoropicolinate] | 85 to 94% | 85 to 94% | 4 g ai/ha | 21 g ai/ha | 21 g ai/ha | 50 g ai/ha | 1 g ai/ha | 85 to 94% | 95 to 100% | 60 to 74% | 75 to 84% | 85 to 94% | 95 to 100% | 1 g ai/ha | 75 to 84% | 95 to 100% | 4 g ai/ha | 18 g ai/ha | 75 to 84% | 85 to 94% | GR50 SETVI [7]: 29 g ai/ha; GR80 SETVI [7]: 46 g ai/ha
